Reference: ChEMBL document CHEMBL5244230, “Artemisinin-derived hybrids and their anticancer activity” (Eur J Med Chem, 2020)

Tested on: HeLa
Assay: Cytotoxicity against human HeLa cells assessed as cell growth inhibition measured after 48 hrs by MTT assay
Format: functional
Settings: not given

In order of falling GI50:
1. COc1ccc(-c2cn([C@@H]3O[C@@H]4O[C@@]5(C)CC[C@H]6[C@H](C)CC[C@@H]([C@H]3C)[C@@]46OO5)nn2)cc1  50 nM
2. Cc1ccc(-c2cnnn2[C@@H]2O[C@@H]3O[C@@]4(C)CC[C@H]5[C@H](C)CC[C@@H]([C@H]2C)[C@@]35OO4)cc1  40 nM
3. C[C@H]1[C@H](n2nncc2-c2ccc(Cl)cc2)O[C@@H]2O[C@@]3(C)CC[C@H]4[C@H](C)CC[C@@H]1[C@@]24OO3  40 nM
4. CCCCCc1ccc(-c2cn([C@H]3O[C@@H]4O[C@@]5(C)CC[C@H]6[C@H](C)CC[C@@H]([C@@H]3C)[C@@]46OO5)nn2)cc1  30 nM
5. COc1ccc(-c2cn([C@H]3O[C@@H]4O[C@@]5(C)CC[C@H]6[C@H](C)CC[C@@H]([C@@H]3C)[C@@]46OO5)nn2)cc1  30 nM

Tested on: not listed separately
Assay: Cytotoxicity against human U87 cells assessed as cell growth inhibition measured after 48 hrs by MTT assay
Format: functional, U-87MG ATCC
Settings: U-87 MG

In order of rising GI50:
1. CCCCCc1ccc(-c2cn([C@H]3O[C@@H]4O[C@@]5(C)CC[C@H]6[C@H](C)CC[C@@H]([C@@H]3C)[C@@]46OO5)nn2)cc1  30 nM
2. COc1ccc(-c2cn([C@H]3O[C@@H]4O[C@@]5(C)CC[C@H]6[C@H](C)CC[C@@H]([C@@H]3C)[C@@]46OO5)nn2)cc1  30 nM
3. Cc1ccc(-c2cnnn2[C@@H]2O[C@@H]3O[C@@]4(C)CC[C@H]5[C@H](C)CC[C@@H]([C@H]2C)[C@@]35OO4)cc1  40 nM
4. C[C@H]1[C@H](n2nncc2-c2ccc(Cl)cc2)O[C@@H]2O[C@@]3(C)CC[C@H]4[C@H](C)CC[C@@H]1[C@@]24OO3  40 nM
5. COc1ccc(-c2cn([C@@H]3O[C@@H]4O[C@@]5(C)CC[C@H]6[C@H](C)CC[C@@H]([C@H]3C)[C@@]46OO5)nn2)cc1  50 nM

Tested on: A549
Assay: Antiproliferative activity against human A549 cells
Format: functional, cell-based
Settings: not given

With `C[C@H]1[C@H](OCCNC(=O)c2ccc(COc3ccc(/C=C/S(=O)(=O)Nc4c(Cl)cccc4Cl)cc3)cc2)O[C@@H]2O[C@@]3(C)CC[C@H]4[C@H](C)CC[C@@H]1[C@@]24OO3` the IC50 was 90 nM.

Tested on: MDA-MB-231
Assay: Antiproliferative activity against human MDA-MB-231 cells
Format: functional, cell-based
Settings: Homo sapiens, MDA-MB-231

In order of rising IC50:
1. Cc1ccccc1NS(=O)(=O)/C=C/c1ccc(OCc2ccc(C(=O)NCCO[C@@H]3O[C@@H]4O[C@@]5(C)CC[C@H]6[C@H](C)CC[C@@H]([C@H]3C)[C@@]46OO5)cc2)cc1  90 nM
2. C[C@H]1[C@H](OCCNC(=O)c2ccc(COc3ccc(/C=C/S(=O)(=O)Nc4ccccc4)cc3)cc2)O[C@@H]2O[C@@]3(C)CC[C@H]4[C@H](C)CC[C@@H]1[C@@]24OO3  90 nM
3. C[C@H]1[C@H](OCCNC(=O)c2ccc(COc3ccc(/C=C/S(=O)(=O)Nc4c(Cl)cccc4Cl)cc3)cc2)O[C@@H]2O[C@@]3(C)CC[C@H]4[C@H](C)CC[C@@H]1[C@@]24OO3  90 nM

Tested on: A 172
Assay: Cytotoxicity against human A-172 cells assessed as cell growth inhibition measured after 48 hrs by MTT assay
Format: functional
Settings: not given

In order of rising GI50:
1. CCCCCc1ccc(-c2cn([C@H]3O[C@@H]4O[C@@]5(C)CC[C@H]6[C@H](C)CC[C@@H]([C@@H]3C)[C@@]46OO5)nn2)cc1  30 nM
2. COc1ccc(-c2cn([C@H]3O[C@@H]4O[C@@]5(C)CC[C@H]6[C@H](C)CC[C@@H]([C@@H]3C)[C@@]46OO5)nn2)cc1  30 nM
3. Cc1ccc(-c2cnnn2[C@@H]2O[C@@H]3O[C@@]4(C)CC[C@H]5[C@H](C)CC[C@@H]([C@H]2C)[C@@]35OO4)cc1  40 nM
4. C[C@H]1[C@H](n2nncc2-c2ccc(Cl)cc2)O[C@@H]2O[C@@]3(C)CC[C@H]4[C@H](C)CC[C@@H]1[C@@]24OO3  40 nM
5. COc1ccc(-c2cn([C@@H]3O[C@@H]4O[C@@]5(C)CC[C@H]6[C@H](C)CC[C@@H]([C@H]3C)[C@@]46OO5)nn2)cc1  50 nM

Tested on: HT-29
Assay: Antiproliferative activity against human HT-29 cells assessed as reduction in cell viability
Format: functional, cell-based
Settings: not given

In order of rising IC50:
1. Cc1ccccc1NS(=O)(=O)/C=C/c1ccc(OCc2ccc(C(=O)NCCO[C@@H]3O[C@@H]4O[C@@]5(C)CC[C@H]6[C@H](C)CC[C@@H]([C@H]3C)[C@@]46OO5)cc2)cc1  90 nM
2. C[C@H]1[C@H](OCCNC(=O)c2ccc(COc3ccc(/C=C/S(=O)(=O)Nc4ccccc4)cc3)cc2)O[C@@H]2O[C@@]3(C)CC[C@H]4[C@H](C)CC[C@@H]1[C@@]24OO3  90 nM
3. C[C@H]1[C@H](OCCNC(=O)c2ccc(COc3ccc(/C=C/S(=O)(=O)Nc4c(Cl)cccc4Cl)cc3)cc2)O[C@@H]2O[C@@]3(C)CC[C@H]4[C@H](C)CC[C@@H]1[C@@]24OO3  90 nM

Tested on: B16
Assay: Cytotoxicity against mouse B16 cells assessed as cell growth inhibition measured after 48 hrs by MTT assay
Format: functional
Settings: not given

In order of falling GI50:
1. COc1ccc(-c2cn([C@@H]3O[C@@H]4O[C@@]5(C)CC[C@H]6[C@H](C)CC[C@@H]([C@H]3C)[C@@]46OO5)nn2)cc1  50 nM
2. Cc1ccc(-c2cnnn2[C@@H]2O[C@@H]3O[C@@]4(C)CC[C@H]5[C@H](C)CC[C@@H]([C@H]2C)[C@@]35OO4)cc1  40 nM
3. C[C@H]1[C@H](n2nncc2-c2ccc(Cl)cc2)O[C@@H]2O[C@@]3(C)CC[C@H]4[C@H](C)CC[C@@H]1[C@@]24OO3  40 nM
4. CCCCCc1ccc(-c2cn([C@H]3O[C@@H]4O[C@@]5(C)CC[C@H]6[C@H](C)CC[C@@H]([C@@H]3C)[C@@]46OO5)nn2)cc1  30 nM
5. COc1ccc(-c2cn([C@H]3O[C@@H]4O[C@@]5(C)CC[C@H]6[C@H](C)CC[C@@H]([C@@H]3C)[C@@]46OO5)nn2)cc1  30 nM

Tested on: DLD-1
Assay: Cytotoxicity against human DLD-1 cells assessed as cell growth inhibition measured after 48 hrs by MTT assay
Format: functional
Settings: not given

In order of falling GI50:
1. COc1ccc(-c2cn([C@@H]3O[C@@H]4O[C@@]5(C)CC[C@H]6[C@H](C)CC[C@@H]([C@H]3C)[C@@]46OO5)nn2)cc1  50 nM
2. Cc1ccc(-c2cnnn2[C@@H]2O[C@@H]3O[C@@]4(C)CC[C@H]5[C@H](C)CC[C@@H]([C@H]2C)[C@@]35OO4)cc1  40 nM
3. C[C@H]1[C@H](n2nncc2-c2ccc(Cl)cc2)O[C@@H]2O[C@@]3(C)CC[C@H]4[C@H](C)CC[C@@H]1[C@@]24OO3  40 nM
4. CCCCCc1ccc(-c2cn([C@H]3O[C@@H]4O[C@@]5(C)CC[C@H]6[C@H](C)CC[C@@H]([C@@H]3C)[C@@]46OO5)nn2)cc1  30 nM
5. COc1ccc(-c2cn([C@H]3O[C@@H]4O[C@@]5(C)CC[C@H]6[C@H](C)CC[C@@H]([C@@H]3C)[C@@]46OO5)nn2)cc1  30 nM

Tested on: SiHa
Assay: Cytotoxicity against human SiHa cells assessed as cell growth inhibition measured after 48 hrs by MTT assay
Format: functional
Settings: not given

In order of rising GI50:
1. CCCCCc1ccc(-c2cn([C@H]3O[C@@H]4O[C@@]5(C)CC[C@H]6[C@H](C)CC[C@@H]([C@@H]3C)[C@@]46OO5)nn2)cc1  30 nM
2. COc1ccc(-c2cn([C@H]3O[C@@H]4O[C@@]5(C)CC[C@H]6[C@H](C)CC[C@@H]([C@@H]3C)[C@@]46OO5)nn2)cc1  30 nM
3. Cc1ccc(-c2cnnn2[C@@H]2O[C@@H]3O[C@@]4(C)CC[C@H]5[C@H](C)CC[C@@H]([C@H]2C)[C@@]35OO4)cc1  40 nM
4. C[C@H]1[C@H](n2nncc2-c2ccc(Cl)cc2)O[C@@H]2O[C@@]3(C)CC[C@H]4[C@H](C)CC[C@@H]1[C@@]24OO3  40 nM
5. COc1ccc(-c2cn([C@@H]3O[C@@H]4O[C@@]5(C)CC[C@H]6[C@H](C)CC[C@@H]([C@H]3C)[C@@]46OO5)nn2)cc1  50 nM
